Assay results as given in patent publication US20250352668A1, “AAV VECTOR ENCODING DIAMINE OXIDASE AND USES THEREOF” (OYSTER POINT PHARMA, INC., priority 2022, published 2025).

What was measured:
[1] = biological target: T1, nAChR subtype alpha4beta2 (Homo sapiens, UniProt P17787+P43681); details: cited from earlier work
T1 construct: expressed in transfected cells

[2] = biological target: T2, nAChR subtype alpha4alpha6beta2 (Homo sapiens, UniProt P17787+P43681+Q15825); details: cited from earlier work
T2 construct: expressed in transfected cells
T2 sequence (P43681 29-627 limits assumed): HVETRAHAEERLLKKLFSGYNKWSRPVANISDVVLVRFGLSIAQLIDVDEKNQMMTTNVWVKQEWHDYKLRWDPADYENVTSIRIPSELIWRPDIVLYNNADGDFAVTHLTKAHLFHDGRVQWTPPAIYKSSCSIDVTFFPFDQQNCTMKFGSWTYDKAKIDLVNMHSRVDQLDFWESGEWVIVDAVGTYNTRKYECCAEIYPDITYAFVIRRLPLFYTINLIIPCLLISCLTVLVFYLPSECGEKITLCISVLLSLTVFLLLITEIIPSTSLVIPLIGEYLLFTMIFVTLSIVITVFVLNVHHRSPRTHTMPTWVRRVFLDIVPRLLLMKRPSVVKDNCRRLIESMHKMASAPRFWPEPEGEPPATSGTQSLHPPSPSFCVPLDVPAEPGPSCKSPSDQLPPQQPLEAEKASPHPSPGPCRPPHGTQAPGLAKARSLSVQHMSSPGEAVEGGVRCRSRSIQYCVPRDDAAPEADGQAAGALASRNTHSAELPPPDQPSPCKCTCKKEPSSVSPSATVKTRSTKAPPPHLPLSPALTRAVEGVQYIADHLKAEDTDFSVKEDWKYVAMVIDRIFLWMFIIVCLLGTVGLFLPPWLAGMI
T2 sequence (Q15825 26-494): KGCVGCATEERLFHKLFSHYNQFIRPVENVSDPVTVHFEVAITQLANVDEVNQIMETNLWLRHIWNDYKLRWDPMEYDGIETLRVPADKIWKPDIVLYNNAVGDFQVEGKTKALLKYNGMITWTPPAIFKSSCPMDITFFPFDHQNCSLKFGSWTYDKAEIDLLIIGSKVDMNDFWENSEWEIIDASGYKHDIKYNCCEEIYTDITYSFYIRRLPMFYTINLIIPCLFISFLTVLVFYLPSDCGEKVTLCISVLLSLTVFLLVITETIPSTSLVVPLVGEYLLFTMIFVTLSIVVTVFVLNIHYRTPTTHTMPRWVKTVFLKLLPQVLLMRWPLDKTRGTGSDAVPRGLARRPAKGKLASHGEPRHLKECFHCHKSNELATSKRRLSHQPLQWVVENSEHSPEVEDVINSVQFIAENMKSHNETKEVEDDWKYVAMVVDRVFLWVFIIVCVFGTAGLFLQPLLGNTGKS
T2 sequence (P17787 26-502): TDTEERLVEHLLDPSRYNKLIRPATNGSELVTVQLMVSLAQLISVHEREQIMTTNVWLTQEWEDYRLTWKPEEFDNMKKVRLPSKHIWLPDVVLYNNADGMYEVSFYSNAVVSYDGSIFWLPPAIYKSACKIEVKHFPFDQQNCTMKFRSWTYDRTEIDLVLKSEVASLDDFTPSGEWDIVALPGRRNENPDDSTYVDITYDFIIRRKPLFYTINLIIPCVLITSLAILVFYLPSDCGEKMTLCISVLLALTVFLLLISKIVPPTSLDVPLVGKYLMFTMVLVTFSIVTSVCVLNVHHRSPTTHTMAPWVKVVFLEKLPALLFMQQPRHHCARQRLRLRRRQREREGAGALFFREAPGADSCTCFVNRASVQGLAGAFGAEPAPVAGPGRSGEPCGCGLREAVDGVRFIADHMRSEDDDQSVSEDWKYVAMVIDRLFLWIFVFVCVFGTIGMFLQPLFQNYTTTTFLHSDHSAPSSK

[3] = biological target: T3, nAChR subtype alpha7 (Homo sapiens, UniProt P36544); details: cited from earlier work
T3 construct: expressed in transfected cells
T3 sequence (P36544 23-502): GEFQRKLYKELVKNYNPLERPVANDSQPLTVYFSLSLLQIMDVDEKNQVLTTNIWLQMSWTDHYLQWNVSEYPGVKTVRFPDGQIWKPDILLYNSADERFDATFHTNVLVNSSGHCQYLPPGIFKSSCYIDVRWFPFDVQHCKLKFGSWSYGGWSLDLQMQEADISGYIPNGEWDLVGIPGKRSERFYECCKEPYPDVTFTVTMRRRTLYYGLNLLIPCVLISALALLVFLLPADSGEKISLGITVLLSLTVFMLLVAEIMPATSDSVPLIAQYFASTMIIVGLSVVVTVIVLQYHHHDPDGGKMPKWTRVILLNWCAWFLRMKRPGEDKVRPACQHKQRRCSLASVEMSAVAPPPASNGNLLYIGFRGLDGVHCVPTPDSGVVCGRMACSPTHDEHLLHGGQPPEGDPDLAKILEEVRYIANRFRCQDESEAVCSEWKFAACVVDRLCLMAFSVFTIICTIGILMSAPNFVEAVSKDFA

[4] = biological target: T4, nAChR subtype alpha3beta4 (Homo sapiens, UniProt P30926+P32297); details: cited from earlier work
T4 construct: expressed in transfected cells
T4 sequence (P32297 32-505): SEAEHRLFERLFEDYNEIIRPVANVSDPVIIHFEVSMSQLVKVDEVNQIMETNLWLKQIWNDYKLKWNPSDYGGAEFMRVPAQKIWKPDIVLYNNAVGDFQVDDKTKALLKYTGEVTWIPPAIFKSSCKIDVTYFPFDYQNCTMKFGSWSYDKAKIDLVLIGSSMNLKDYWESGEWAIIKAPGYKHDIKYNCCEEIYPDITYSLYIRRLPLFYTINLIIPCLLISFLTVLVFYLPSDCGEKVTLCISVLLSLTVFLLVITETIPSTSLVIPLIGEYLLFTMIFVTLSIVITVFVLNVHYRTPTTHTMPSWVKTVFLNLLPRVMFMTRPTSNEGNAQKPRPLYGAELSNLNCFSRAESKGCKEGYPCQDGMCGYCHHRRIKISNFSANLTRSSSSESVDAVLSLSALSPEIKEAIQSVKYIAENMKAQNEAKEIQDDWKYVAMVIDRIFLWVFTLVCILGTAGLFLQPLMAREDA
T4 sequence (P30926 22-498): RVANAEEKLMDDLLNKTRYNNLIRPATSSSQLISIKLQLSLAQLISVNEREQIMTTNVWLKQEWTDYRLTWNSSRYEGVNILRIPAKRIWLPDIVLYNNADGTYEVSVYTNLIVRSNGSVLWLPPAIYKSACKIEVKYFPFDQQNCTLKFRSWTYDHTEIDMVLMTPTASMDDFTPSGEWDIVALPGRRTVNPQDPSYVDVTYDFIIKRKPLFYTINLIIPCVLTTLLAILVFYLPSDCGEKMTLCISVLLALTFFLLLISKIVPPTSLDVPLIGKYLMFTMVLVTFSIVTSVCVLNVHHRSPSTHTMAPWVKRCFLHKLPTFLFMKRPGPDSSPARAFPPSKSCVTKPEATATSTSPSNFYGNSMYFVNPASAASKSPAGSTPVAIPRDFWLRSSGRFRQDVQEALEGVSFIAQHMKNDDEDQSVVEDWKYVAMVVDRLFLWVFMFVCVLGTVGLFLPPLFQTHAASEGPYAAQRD

[5] = biological target: T5, nAChR subtype alpha3alpha5beta4 (Homo sapiens, UniProt P30926+P32297); details: cited from earlier work
T5 construct: expressed in transfected cells
T5 sequence (P32297 32-505): as the sequence (P32297 32-505) above
T5 sequence (P30532 23-468 partner): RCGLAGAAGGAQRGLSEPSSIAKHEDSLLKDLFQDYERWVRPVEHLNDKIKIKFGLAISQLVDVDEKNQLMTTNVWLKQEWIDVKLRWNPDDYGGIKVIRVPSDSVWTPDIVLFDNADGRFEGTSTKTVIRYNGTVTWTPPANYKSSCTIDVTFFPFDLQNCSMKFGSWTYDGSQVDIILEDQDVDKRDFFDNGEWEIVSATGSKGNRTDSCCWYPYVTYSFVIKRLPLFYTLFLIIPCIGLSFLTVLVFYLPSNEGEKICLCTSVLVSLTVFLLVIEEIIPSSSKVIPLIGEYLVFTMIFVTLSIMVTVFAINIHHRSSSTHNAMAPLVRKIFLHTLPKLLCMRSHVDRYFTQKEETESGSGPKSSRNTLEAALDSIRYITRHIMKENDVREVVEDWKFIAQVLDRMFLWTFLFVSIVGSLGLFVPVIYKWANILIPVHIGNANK
T5 sequence (P30926 22-498): as the sequence (P30926 22-498) above

[6] = biological target: T6, nAChR subtype alpha3beta2 (Homo sapiens, UniProt P17787+P32297); details: cited from earlier work
T6 construct: expressed in transfected cells
T6 sequence (P32297 32-505): as the sequence (P32297 32-505) above
T6 sequence (P17787 26-502): as the sequence (P17787 26-502) above

[7] = biological target: T7, nAChR subtype alpha6beta2 (Homo sapiens, UniProt P17787+Q15825); details: cited from earlier work
T7 construct: expressed in transfected cells
T7 sequence (Q15825 26-494): as the sequence (Q15825 26-494) above
T7 sequence (P17787 26-502): as the sequence (P17787 26-502) above

[8] = biological target: T3, nAChR subtype alpha7; assay: nAChR agonist response (ACh-normalised evoked current), subtype alpha7; format: cell-based; details: 300 micromolar concentration
Excerpt: In general, a nAChR agonist is a full agonist if it evokes a response upon binding to a given receptor that is equal or greater to that of ACh.
nAChR agonist response, from which receptor activation can be determined can, for example, be generated using an appropriate cell-based assay. Cells designed to express a particular nAChR receptor subtype and generate an electrical current response when bound to and activated by a nAChR agonist can be used to characterize the agonist profile of a compound and the amount of receptor activation thus determined. An example of a generic protocol is described below.
Cells that express a particular human nAChR subtype are first exposed to ACh. ACh binds and activates the receptor, thereby evoking a current. The concentration of the ACh is chosen to elicit the maximum response of the receptor (e.g., 1280 micromolar ACh). This current is recorded as the ACh response and serves as the 100% nAChR agonist response and to which responses to other nAChR agonists are compared. […]
The current evoked by exposure to the nAChR agonist is measured and recorded for each nAChR concentration. […] The nAChR agonist response is then calculated as a percentage of the ACh response.
A nAChR agonist evoking a response equal to or greater than the maximum ACh response determined at the same receptor type is a full agonist. […]

T1 sequence (P43681 29-627 limits assumed): as the sequence (P43681 29-627 limits assumed) above
T1 sequence (P17787 26-502): as the sequence (P17787 26-502) above

| Structure (SMILES) | agonist characterisation at nAChR subtype alpha4beta2 [1] | agonist characterisation at nAChR subtype alpha4alpha6beta2 [2] | agonist characterisation at nAChR subtype alpha7 [3] | agonist characterisation at nAChR subtype alpha3beta4 [4] | agonist characterisation at nAChR subtype alpha3alpha5beta4 [5] | agonist characterisation at nAChR subtype alpha3beta2 [6] | agonist characterisation at nAChR subtype alpha6beta2 [7] | evoked current as % of the maximal ACh-evoked current [8] [%] |
| --- | --- | --- | --- | --- | --- | --- | --- | --- |
| C(=C\[C@H]1CCNC1)/c1cncnc1 [Compound 1, (R)-5-((E)-2-pyrrolidin-3-ylvinyl)pyrimidine] | full agonist | full agonist | weak partial agonist | full agonist | full agonist | partial agonist | – | – |
| O=C(O)C(O)C(O)C(=O)O.c1cnc2cc3c(cc2n1)C1CNCC3C1 [Varenicline] | partial agonist | partial agonist | full agonist | partial agonist | partial agonist | – | partial agonist | – |
| C(=C\[C@H]1CCNC1)/c1cncnc1.O=C(O)CC(O)(CC(=O)O)C(=O)O [compound 1 citrate, (R)-5-((E)-2-pyrrolidin-3-ylvinyl)pyrimidine mono-citrate] | – | – | – | – | – | – | – | 25 |
